Data reported in patent US20120053239A1, “TREATMENT FOR INTESTINAL GAS, BLOATING, MICROSCOPIC COLITIS, INFLAMMATORY BOWEL DISEASE AND TRAVELER'S DIARRHEA USING COLLOIDAL BISMUTH SUBCITRATE” (priority 2006, published 2012).

How the values were obtained:
[1] = 20 clinical studies, more than 5000 patients; cited from earlier work
[2] = Inventor's clinical experience: CBS in patients with severe flatus passage and gastrointestinal discomfort after nonabsorbable carbohydrates; format: in vivo, human; settings: six patients; CBS 125 mg, 1 or 2 capsules per day or twice a day for one to two days
Protocol: (§1) The inventor has specific clinical experience with the use of CBS. Six patients who had episodic both severe flatus passage and gastrointestinal discomfort after the consumption of large quantities of nonabsorbable carbohydrates were treated with CBS obtained from a compounding pharmacy. […] A single dose of CBS 125 mg was administered to a dog with excessive and bothersome gas following a large meal including table food.

[3] = Single dose of CBS in a dog with excessive gas after a large meal; format: in vivo; settings: single dose of CBS 125 mg
Protocol: as §1

[4] = CBS in one patient with symptomatic microscopic colitis; format: in vivo, human; settings: CBS 600 mg three times daily for one month
[5] = cited from earlier work

Molecule | side effects compared with ranitidine alone [1] | acute symptoms of excess of gas passage [2] | toxic effects [2] | flatus after administration [3] | symptoms of microscopic colitis [4] | safety of use in nonulcer dyspepsia ([5]; 480 mg of CBS daily for 8 weeks) | serum bismuth levels after ingestion ([5]; up to 480 mg per day of CBS for more than 4 weeks)
CNC(=C[N+](=O)[O-])NCCSCc1ccc(CN(C)C)o1.O=C([O-])CC(O)(CC(=O)[O-])C(=O)[O-].[Bi+3] [ranitidine bismuth citrate] | no different than those seen with ranitidine alone |  |  |  |  |  | 
colloidal bismuth subcitrate [CBS] |  | completely eliminated all of acute symptoms | No toxic effects were noted | Complete session of flatus | complete resolution of symptoms | safe use | safe serum bismuth levels
